Source: paper PMC5623949, “Exploiting the 2-Amino-1,3,4-thiadiazole Scaffold To Inhibit Trypanosoma brucei Pteridine Reductase in Support of Early-Stage Drug Discovery” (ACS Omega, 2017)
Where two headings read alike, the source gives them in different places.

Experiments:
[1] = biological target: T1, hDHFR (Homo sapiens, UniProt P00374); assay: biochemical; design: human DHFR enzyme inhibition
T1 construct: gene DHFR
T1 sequence (P00374 1-187): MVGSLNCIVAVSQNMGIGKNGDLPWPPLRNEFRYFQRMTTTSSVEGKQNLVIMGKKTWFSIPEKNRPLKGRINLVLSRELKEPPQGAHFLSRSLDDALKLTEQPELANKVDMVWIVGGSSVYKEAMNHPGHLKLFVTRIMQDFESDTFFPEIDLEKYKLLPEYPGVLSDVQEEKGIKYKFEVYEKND
Protocol: Figure 10 Summary heat map of the in vitro assays to determine possible liability issues for all synthesized compounds. Assays were performed to assess inhibition of hERG and five CYP isoforms (1A2, 2C9, 2C19, 2D6, and 3A4), growth inhibition of A549 and W1-38 cell lines, and mitochondrial toxicity at 10 μM. The hDHFR inhibition was determined at 100 μM. The data, expressed as percentage values, were organized by adopting a color code for rapid and intuitive visualization. The ideal compound should have all tiles blue, indicating a safe toxicological profile for progressing into the development pipeline. The cells are colored from blue (100% of cell growth at the tested concentration) to red (0% of cell growth at the tested concentration) for A549 and W1-38 and from blue (0% of inhibitory activity at the tested concentration) to red (100% of inhibitory activity at the tested concentration) for CYP isoforms, hERG, hDHFR, and mitochondrial toxicity.

[2] = in vitro; design: cytotoxicity, per cent cell growth of WI-38 fibroblasts; details: human, wi-38 cells; read-out: % cell growth W1-38 at 10uM
[3] = biological target: T2, CYP1A2 (Homo sapiens, UniProt P05177); assay: in vitro; design: cytochrome P450 isoform inhibition liability assay
T2 sequence (P05177 1-516): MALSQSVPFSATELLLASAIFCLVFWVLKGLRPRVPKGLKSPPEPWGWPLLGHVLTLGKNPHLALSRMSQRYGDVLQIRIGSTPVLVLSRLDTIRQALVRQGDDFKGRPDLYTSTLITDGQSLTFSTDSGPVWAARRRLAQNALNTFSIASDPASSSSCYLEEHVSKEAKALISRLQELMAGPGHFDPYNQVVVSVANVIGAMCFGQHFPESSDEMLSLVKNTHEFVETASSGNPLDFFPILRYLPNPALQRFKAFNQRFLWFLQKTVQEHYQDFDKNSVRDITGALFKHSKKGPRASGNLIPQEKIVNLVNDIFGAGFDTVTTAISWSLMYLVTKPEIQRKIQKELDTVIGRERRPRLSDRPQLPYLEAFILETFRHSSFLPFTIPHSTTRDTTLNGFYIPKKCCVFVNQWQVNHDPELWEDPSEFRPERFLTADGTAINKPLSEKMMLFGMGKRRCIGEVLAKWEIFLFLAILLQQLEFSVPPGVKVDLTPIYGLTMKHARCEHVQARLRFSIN

[4] = biological target: CYP2C9 (Homo sapiens, UniProt P11712); assay: in vitro; design: cytochrome P450 isoform inhibition liability assay
Sequence of CYP2C9 (P11712 whole entry, canonical isoform): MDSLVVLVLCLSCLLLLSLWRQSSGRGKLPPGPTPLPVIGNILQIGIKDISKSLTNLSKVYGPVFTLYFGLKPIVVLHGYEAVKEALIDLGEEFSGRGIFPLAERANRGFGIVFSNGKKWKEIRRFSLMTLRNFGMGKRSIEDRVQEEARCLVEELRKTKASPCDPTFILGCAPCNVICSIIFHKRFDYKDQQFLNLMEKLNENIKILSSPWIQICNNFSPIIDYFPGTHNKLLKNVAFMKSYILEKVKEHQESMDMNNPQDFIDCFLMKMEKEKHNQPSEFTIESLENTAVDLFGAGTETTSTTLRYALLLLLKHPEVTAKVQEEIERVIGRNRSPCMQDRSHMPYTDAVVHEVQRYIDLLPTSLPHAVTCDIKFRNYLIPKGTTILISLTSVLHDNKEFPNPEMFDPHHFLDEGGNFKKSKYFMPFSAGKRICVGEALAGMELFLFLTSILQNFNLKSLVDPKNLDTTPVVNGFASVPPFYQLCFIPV

[5] = biological target: CYP2D6 (Homo sapiens, UniProt P10635); assay: in vitro; design: cytochrome P450 isoform inhibition liability assay
Sequence of CYP2D6 (P10635 whole entry, canonical isoform): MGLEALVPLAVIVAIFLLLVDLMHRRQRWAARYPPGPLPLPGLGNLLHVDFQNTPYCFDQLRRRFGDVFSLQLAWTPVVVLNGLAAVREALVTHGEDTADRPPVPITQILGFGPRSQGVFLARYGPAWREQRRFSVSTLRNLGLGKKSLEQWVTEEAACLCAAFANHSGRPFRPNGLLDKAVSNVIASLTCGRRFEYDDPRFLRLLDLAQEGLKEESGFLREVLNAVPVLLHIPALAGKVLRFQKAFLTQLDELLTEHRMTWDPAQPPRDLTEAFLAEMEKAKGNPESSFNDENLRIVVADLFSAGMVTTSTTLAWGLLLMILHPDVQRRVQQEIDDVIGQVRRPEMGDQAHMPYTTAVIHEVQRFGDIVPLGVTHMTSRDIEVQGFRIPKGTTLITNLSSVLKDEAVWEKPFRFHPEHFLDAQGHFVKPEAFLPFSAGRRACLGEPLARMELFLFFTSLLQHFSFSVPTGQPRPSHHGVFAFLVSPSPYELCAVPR

[6] = biological target: CYP2C19 (Homo sapiens, UniProt P33261); assay: in vitro; design: cytochrome P450 isoform inhibition liability assay
Sequence of CYP2C19 (P33261 whole entry, canonical isoform): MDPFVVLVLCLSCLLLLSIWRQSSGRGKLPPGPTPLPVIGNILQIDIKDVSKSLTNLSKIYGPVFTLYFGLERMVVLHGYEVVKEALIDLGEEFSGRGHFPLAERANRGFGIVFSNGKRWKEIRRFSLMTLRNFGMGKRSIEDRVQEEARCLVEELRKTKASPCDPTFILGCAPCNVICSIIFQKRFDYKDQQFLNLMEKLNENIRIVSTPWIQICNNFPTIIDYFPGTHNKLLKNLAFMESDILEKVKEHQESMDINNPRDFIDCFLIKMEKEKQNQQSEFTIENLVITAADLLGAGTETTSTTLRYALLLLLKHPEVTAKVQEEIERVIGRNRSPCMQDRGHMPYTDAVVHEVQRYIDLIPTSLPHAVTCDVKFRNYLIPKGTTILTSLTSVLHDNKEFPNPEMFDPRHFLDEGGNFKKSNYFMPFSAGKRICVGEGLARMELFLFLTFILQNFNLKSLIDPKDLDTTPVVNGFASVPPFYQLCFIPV

[7] = biological target: CYP3A4 (Homo sapiens, UniProt P08684); assay: in vitro; design: cytochrome P450 isoform inhibition liability assay
Sequence of CYP3A4 (P08684 whole entry, canonical isoform): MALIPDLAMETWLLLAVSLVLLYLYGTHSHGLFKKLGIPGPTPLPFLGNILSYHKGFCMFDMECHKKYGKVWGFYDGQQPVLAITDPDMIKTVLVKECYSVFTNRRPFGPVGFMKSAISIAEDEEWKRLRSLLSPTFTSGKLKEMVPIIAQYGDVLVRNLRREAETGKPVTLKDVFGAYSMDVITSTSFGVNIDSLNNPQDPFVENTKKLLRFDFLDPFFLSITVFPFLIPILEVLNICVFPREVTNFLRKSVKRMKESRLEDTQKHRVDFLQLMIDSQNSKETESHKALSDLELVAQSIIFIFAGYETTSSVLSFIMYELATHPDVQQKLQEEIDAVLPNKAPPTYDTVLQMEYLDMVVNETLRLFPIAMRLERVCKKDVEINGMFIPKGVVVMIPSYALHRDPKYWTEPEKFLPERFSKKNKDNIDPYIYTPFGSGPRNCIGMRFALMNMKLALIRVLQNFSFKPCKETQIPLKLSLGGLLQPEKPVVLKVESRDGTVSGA

[8] = system: T. b. brucei Lister 427 bloodstream forms; assay: In vitro activity against T. brucei (HTS SYBR Green I growth inhibition assay); assay type: cell-based, Trypanosoma brucei brucei; details: Trypanosoma brucei, standard deviation within ±10% of the value; for inhibition at 50 µM: read-out: % Inhibition T. brucei at 50 μM
[9] = biological target: T3, TbPTR1 (Trypanosoma brucei brucei, UniProt O76290); assay: biochemical; details: 50 μM compound; read-out: % Inhibition TbPTR1 at 50 μM
T3 construct: made in house
T3 sequence (O76290 1-268): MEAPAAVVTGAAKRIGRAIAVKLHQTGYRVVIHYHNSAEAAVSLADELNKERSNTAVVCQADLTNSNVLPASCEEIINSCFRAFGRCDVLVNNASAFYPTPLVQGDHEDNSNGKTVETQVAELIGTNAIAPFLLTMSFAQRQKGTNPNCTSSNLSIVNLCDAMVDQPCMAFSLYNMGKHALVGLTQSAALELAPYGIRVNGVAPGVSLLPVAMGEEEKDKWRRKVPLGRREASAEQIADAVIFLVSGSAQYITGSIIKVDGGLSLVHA

[10] = system: 786-O; assay: cells; design: mitochondrial toxicity in 786-O renal carcinoma cells; details: Homo sapiens, 786-0; mitochondrial toxicity
[11] = in vitro; design: cytotoxicity, per cent cell growth of A549 cells; details: human, a549 cells; read-out: % cell growth A549 at 10uM
[12] = biological target: T4, hERG (Homo sapiens, UniProt Q12809); design: hERG inhibition liability assay
T4 construct: gene KCNH2
T4 sequence (Q12809 whole entry): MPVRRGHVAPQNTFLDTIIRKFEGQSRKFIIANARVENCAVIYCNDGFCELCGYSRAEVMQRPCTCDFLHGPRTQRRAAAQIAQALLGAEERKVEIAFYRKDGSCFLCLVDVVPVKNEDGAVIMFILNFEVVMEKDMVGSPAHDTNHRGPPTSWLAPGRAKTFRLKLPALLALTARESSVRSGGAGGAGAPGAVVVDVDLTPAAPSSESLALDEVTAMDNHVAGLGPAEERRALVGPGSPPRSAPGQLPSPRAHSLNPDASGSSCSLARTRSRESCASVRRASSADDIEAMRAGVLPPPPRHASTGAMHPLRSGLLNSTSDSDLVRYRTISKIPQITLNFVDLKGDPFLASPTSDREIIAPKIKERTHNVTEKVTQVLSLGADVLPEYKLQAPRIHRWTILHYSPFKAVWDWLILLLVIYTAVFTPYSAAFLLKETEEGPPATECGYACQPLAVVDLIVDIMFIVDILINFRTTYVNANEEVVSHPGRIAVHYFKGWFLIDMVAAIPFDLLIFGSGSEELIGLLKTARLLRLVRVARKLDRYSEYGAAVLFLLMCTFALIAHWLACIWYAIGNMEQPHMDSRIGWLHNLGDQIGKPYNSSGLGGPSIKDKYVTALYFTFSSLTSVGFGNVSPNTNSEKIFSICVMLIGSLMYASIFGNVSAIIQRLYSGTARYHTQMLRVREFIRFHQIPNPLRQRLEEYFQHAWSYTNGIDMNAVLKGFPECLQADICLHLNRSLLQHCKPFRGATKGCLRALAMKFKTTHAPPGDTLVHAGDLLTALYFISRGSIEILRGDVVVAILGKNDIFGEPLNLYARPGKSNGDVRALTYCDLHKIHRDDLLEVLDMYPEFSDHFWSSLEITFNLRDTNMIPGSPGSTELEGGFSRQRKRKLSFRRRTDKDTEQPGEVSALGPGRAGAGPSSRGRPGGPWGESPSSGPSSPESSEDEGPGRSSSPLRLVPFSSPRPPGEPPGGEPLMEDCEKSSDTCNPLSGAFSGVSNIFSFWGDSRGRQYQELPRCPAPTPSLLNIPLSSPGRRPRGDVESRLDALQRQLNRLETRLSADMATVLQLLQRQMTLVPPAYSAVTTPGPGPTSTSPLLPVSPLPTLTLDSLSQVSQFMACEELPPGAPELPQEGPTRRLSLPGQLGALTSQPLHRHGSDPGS

Structure (SMILES): Nc1nnc(-c2ccc(O)c(O)c2)s1 [1d, 3′,4′-dihydroxy-phenyl-1,3,4-thiadiazole]
- inhibition at 100 µM [1]: 62%
- viability at 10 µM [2]: 99.9 ± 17.5%
- inhibition at 10 µM [3]: -16.8 ± 6.9%
- inhibition at 10 µM [4]: -19.5 ± 5.6%
- inhibition at 10 µM [5]: -28.4 ± 10.1%
- inhibition at 10 µM [6]: -32.3 ± 7.8%
- inhibition at 10 µM [7]: -8.1 ± 3.2%
- inhibition at 50 µM [8]: 78.6%
- EC50 ([8]; read-out: EC50 T. brucei): 18.3 µM
- inhibition at 50 µM [9]: 16.7 ± 1%
- inhibition at 10 µM [10]: -0.1 ± 6.2%
- viability at 10 µM [11]: 145.9 ± 0.7%
- inhibition at 10 µM [12]: 19.2 ± 6.4%

Structure (SMILES): Nc1nnc(N)s1 [4a]
- inhibition at 100 µM [1]: 36%
- viability at 10 µM [2]: 81.3 ± 13.5%
- inhibition at 10 µM [3]: 40.5 ± 3%
- inhibition at 10 µM [4]: 46 ± 1.7%
- inhibition at 10 µM [5]: -15.9 ± 8.6%
- inhibition at 10 µM [6]: 62.3 ± 8.3%
- inhibition at 10 µM [7]: 53.4 ± 4.4%
- inhibition at 50 µM [8]: < 0%
- inhibition at 50 µM [9]: 14.2 ± 0.8%
- inhibition at 10 µM [10]: 1.7 ± 6.6%
- viability at 10 µM [11]: 113 ± 4.4%
- inhibition at 10 µM [12]: 4.7 ± 3.6%

Structure (SMILES): COc1ccc(-c2nnc(N)s2)cc1OC [1c]
- inhibition at 100 µM [1]: 42%
- viability at 10 µM [2]: 110 ± 33.5%
- inhibition at 10 µM [3]: 14.1 ± 3.4%
- inhibition at 10 µM [4]: -25.9 ± 1.5%
- inhibition at 10 µM [5]: -45.9 ± 3.1%
- inhibition at 10 µM [6]: -26.1 ± 22.5%
- inhibition at 10 µM [7]: -7.1 ± 6%
- inhibition at 50 µM [8]: 64.3%
- inhibition at 50 µM [9]: 9.4 ± 0.3%
- inhibition at 10 µM [10]: -7.3 ± 5.2%
- viability at 10 µM [11]: 105 ± 5.3%
- inhibition at 10 µM [12]: 13.6 ± 4%

Structure (SMILES): COc1ccccc1-c1nnc(N)s1 [1h]
- inhibition at 100 µM [1]: 14%
- viability at 10 µM [2]: 129 ± 10.3%
- inhibition at 10 µM [3]: 21.5 ± 4.6%
- inhibition at 10 µM [4]: -32.3 ± 3.6%
- inhibition at 10 µM [5]: -31.5 ± 9.5%
- inhibition at 10 µM [6]: -20.9 ± 16.1%
- inhibition at 10 µM [7]: -9.4 ± 8%
- inhibition at 50 µM [8]: < 0%
- inhibition at 50 µM [9]: 24.1 ± 1%
- inhibition at 10 µM [10]: -7.8 ± 2.6%
- viability at 10 µM [11]: 126 ± 17.3%
- inhibition at 10 µM [12]: 5.2 ± 6.6%

Structure (SMILES): COc1ccc(-c2ccc(-c3nnc(N)s3)nc2)cc1 [1t]
- inhibition at 10 µM [1]: 8%
- viability at 10 µM [2]: 107 ± 10.4%
- inhibition at 10 µM [3]: 76.4 ± 1.2%
- inhibition at 10 µM [4]: 19.7 ± 8.9%
- inhibition at 10 µM [5]: 8.9 ± 2.4%
- inhibition at 10 µM [6]: 17 ± 5.7%
- inhibition at 10 µM [7]: 8.5 ± 3.3%
- inhibition at 50 µM [8]: 28.9%
- inhibition at 50 µM [9]: 8.3 ± 1.8%
- inhibition at 10 µM [10]: 6.7 ± 17.3%
- viability at 10 µM [11]: 60.7 ± 5.9%
- inhibition at 10 µM [12]: 59.5 ± 42.9%

Structure (SMILES): Nc1nnc(-c2cccc(-c3ccc4c(c3)OCO4)c2)s1 [2g]
- inhibition at 10 µM [1]: 12%
- viability at 10 µM [2]: 130 ± 14.1%
- inhibition at 10 µM [3]: 97.8 ± 1%
- inhibition at 10 µM [4]: 28.7 ± 2.2%
- inhibition at 10 µM [5]: 27 ± 2.36%
- inhibition at 10 µM [6]: 34.3 ± 3.7%
- inhibition at 10 µM [7]: 28.2 ± 5%
- inhibition at 50 µM [8]: 10.4%
- inhibition at 50 µM [9]: 4 ± 0.4%
- inhibition at 10 µM [10]: -2.6 ± 13.7%
- viability at 10 µM [11]: 116 ± 8.3%
- inhibition at 10 µM [12]: 27.9 ± 5.2%
